From ChEMBL document CHEMBL5036347, “Design of the naphthyl-diarylpyrimidines as potent non-nucleoside reverse transcriptase inhibitors (NNRTIs) via structure-based extension into the entrance channel” (Eur J Med Chem, 2021)

Columns and labels:
[1] = system: Human immunodeficiency virus 1; experiment: Antiviral activity against HIV1 harboring reverse transcriptase L100I mutant infected in human MT4 cells assessed as protection against virus-induced cytopathic effect incubated for 5 days by MTT assay; type: functional, organism-based; conditions: Human immunodeficiency virus 1, MT4, 120 h
[2] = system: Human immunodeficiency virus 1; experiment: Antiviral activity against HIV1 harboring reverse transcriptase Y188L mutant infected in human MT4 cells assessed as protection against virus-induced cytopathic effect incubated for 5 days by MTT assay; type: functional, organism-based; conditions: Human immunodeficiency virus 1, MT4, 120 h
[3] = system: Human immunodeficiency virus 1; experiment: Antiviral activity against HIV1 harboring reverse transcriptase E138K mutant infected in human MT4 cells assessed as protection against virus-induced cytopathic effect incubated for 5 days by MTT assay; type: functional, organism-based; conditions: Human immunodeficiency virus 1, MT4, 120 h
[4] = Cytotoxicity against human MT4 cells assessed as reduction in cell viability incubated for 5 days by MTT assay; type: cell-based; conditions: human, MT4 cells; time 5 day
[5] = Resistance fold, ratio of EC50 for HIV1 harboring reverse transcriptase L100I mutant […] to EC50 for wild type HIV1 […]; type: functional
[6] = system: Human immunodeficiency virus 2; experiment: Anti-HIV activity against HIV2 ROD infected in human MT4 cells assessed as reduction in virus-induced cytopathic effect incubated for 5 days by MTT assay; type: functional, organism-based; conditions: Human immunodeficiency virus 2, ROD, MT4, 120 h
[7] = Resistance fold, ratio of EC50 for HIV1 harboring reverse transcriptase E138K mutant […] to EC50 for wild type HIV1 […]; type: functional
[8] = Resistance fold, ratio of EC50 for HIV1 harboring reverse transcriptase Y188L mutant […] to EC50 for wild type HIV1 […]; type: functional
[9] = Resistance fold, ratio of EC50 for HIV1 harboring reverse transcriptase K103N mutant […] to EC50 for wild type HIV1 […]; type: functional
[10] = system: Human immunodeficiency virus 1; experiment: Antiviral activity against HIV1 harboring reverse transcriptase K103N/Y181C double mutant infected in human MT4 cells assessed as protection against virus-induced cytopathic effect incubated for 5 days by MTT assay; type: functional, organism-based; conditions: Human immunodeficiency virus 1, MT4, 120 h
[11] = system: Human immunodeficiency virus 1; experiment: Antiviral activity against HIV1 harboring reverse transcriptase Y181C mutant infected in human MT4 cells assessed as protection against virus-induced cytopathic effect incubated for 5 days by MTT assay; type: functional, organism-based; conditions: Human immunodeficiency virus 1, MT4, 120 h
[12] = Selectivity index, ratio of CC50 for cytotoxicity against human MT4 cells to EC50 of Anti-HIV activity against HIV-1 IIIB infected in human MT4; type: toxicity, cell-based; conditions: read-out: Selectivity Index
[13] = Resistance fold, ratio of EC50 for HIV1 harboring reverse transcriptase Y181C mutant […] to EC50 for wild type HIV1 […]; type: functional
[14] = Resistance fold, ratio of EC50 for HIV1 harboring reverse transcriptase K103N/Y181C double mutant […] to EC50 for wild type HIV1 […]; type: functional
[15] = target: Human immunodeficiency virus type 1 reverse transcriptase (Human immunodeficiency virus 1, UniProt Q72547); experiment: Inhibition of wild type HIV1 reverse transcriptase using oligo(dT)16 as primer measured after 40 mins by picogreen-dye based spectrofluorimetric analysis
[16] = Resistance fold, ratio of EC50 for HIV1 harboring reverse transcriptase F227L/V106A double mutant […] to EC50 for wild type HIV1 […]; type: functional
[17] = system: Human immunodeficiency virus 1; experiment: Anti-HIV activity against HIV-1 IIIB infected in human MT4 cells assessed as reduction in virus-induced cytopathic effect incubated for 5 days by MTT assay; type: functional, organism-based; conditions: Human immunodeficiency virus 1, IIIB, MT4, 120 h
[18] = system: Human immunodeficiency virus 1; experiment: Antiviral activity against HIV1 harboring reverse transcriptase K103N mutant infected in human MT4 cells assessed as protection against virus-induced cytopathic effect incubated for 5 days by MTT assay; type: functional, organism-based; conditions: Human immunodeficiency virus 1, MT4, 120 h
[19] = system: Human immunodeficiency virus 1; experiment: Antiviral activity against HIV1 harboring reverse transcriptase F227L/V106A mutant infected in human MT4 cells assessed as protection against virus-induced cytopathic effect incubated for 5 days by MTT assay; type: functional, organism-based; conditions: Human immunodeficiency virus 1, MT4, 120 h

Question: Which EC50 [1] does the source give for `COc1cc2cc(C#N)ccc2c(OC)c1Oc1cc(NCC(F)(F)F)nc(Nc2ccc(C#N)cc2)n1` here?
Answer: 0.49 µM

Question: And the EC50 [2]?
Answer: 1.8 µM

Question: And the IC50 [3]?
Answer: 0.073 µM

Question: What about the CC50 at 120 h [4] of the same molecule?
Answer: > 125 µM

Question: What about the “Ratio EC50” value [5] of the same molecule?
Answer: 14

Question: What about the EC50 [6] of the same molecule?
Answer: 186 µM

Question: What about the “Ratio EC50” value [7] of the same molecule?
Answer: 2

Question: And the “Ratio EC50” value [8]?
Answer: 51

Question: What about the “Ratio EC50” value [9] of the same molecule?
Answer: 1

Question: What about the EC50 [10] of the same molecule?
Answer: 2.52 µM

Question: What about the EC50 [11] of the same molecule?
Answer: 0.36 µM

Question: And the selectivity ratio [12]?
Answer: > 6820

Question: What about the “Ratio EC50” value [13] of the same molecule?
Answer: 10

Question: What about the “Ratio EC50” value [14] of the same molecule?
Answer: 71

Question: And the IC50 [15]?
Answer: 0.14 µM

Question: And the “Ratio EC50” value [16]?
Answer: 168

Question: And the EC50 [17]?
Answer: 0.035 µM

Question: And the EC50 [18]?
Answer: 0.04 µM

Question: What about the EC50 [19] of the same molecule?
Answer: 5.91 µM

Question: For `COc1cc2cc(C#N)ccc2c(OC)c1Oc1cc(NCCCOC(C)C)nc(Nc2ccc(C#N)cc2)n1`, which EC50 [1] is on record?
Answer: 1.23 µM

Question: And the EC50 [2]?
Answer: 2.51 µM

Question: And the EC50 [3]?
Answer: 0.057 µM

Question: What about the CC50 at 120 h [4] of the same molecule?
Answer: > 125 µM

Question: And the “Ratio EC50” value [5]?
Answer: 29

Question: And the EC50 [6]?
Answer: > 1000 µM

Question: What about the “Ratio EC50” value [7] of the same molecule?
Answer: 1

Question: What about the “Ratio EC50” value [8] of the same molecule?
Answer: 58

Question: And the “Ratio EC50” value [9]?
Answer: 3

Question: And the EC50 [10]?
Answer: 2.07 µM

Question: And the EC50 [11]?
Answer: 0.55 µM

Question: What about the selectivity ratio [12] of the same molecule?
Answer: > 5380

Question: And the “Ratio EC50” value [13]?
Answer: 13

Question: What about the “Ratio EC50” value [14] of the same molecule?
Answer: 48

Question: And the IC50 [15]?
Answer: 0.32 µM

Question: And the “Ratio EC50” value [16]?
Answer: >23202

Question: And the EC50 [17]?
Answer: 0.043 µM

Question: What about the EC50 [18] of the same molecule?
Answer: 0.033 µM

Question: What about the EC50 [19] of the same molecule?
Answer: > 1000 µM

Question: For `COc1cc2cc(C#N)ccc2c(OC)c1Oc1cc(N2CCOCC2)nc(Nc2ccc(C#N)cc2)n1`, which EC50 [1] is on record?
Answer: 0.52 µM

Question: And the EC50 [2]?
Answer: 2.34 µM

Question: What about the EC50 [3] of the same molecule?
Answer: 0.051 µM

Question: What about the CC50 at 120 h [4] of the same molecule?
Answer: > 125 µM

Question: And the “Ratio EC50” value [5]?
Answer: 14

Question: And the EC50 [6]?
Answer: > 1000 µM

Question: And the “Ratio EC50” value [7]?
Answer: 1

Question: What about the “Ratio EC50” value [8] of the same molecule?
Answer: 62

Question: And the “Ratio EC50” value [9]?
Answer: 3

Question: And the EC50 [10]?
Answer: 23.9 µM

Question: And the EC50 [11]?
Answer: 0.29 µM

Question: And the selectivity ratio [12]?
Answer: > 6510

Question: And the “Ratio EC50” value [13]?
Answer: 8

Question: What about the “Ratio EC50” value [14] of the same molecule?
Answer: 634

Question: What about the IC50 [15] of the same molecule?
Answer: 0.25 µM

Question: And the “Ratio EC50” value [16]?
Answer: >26525

Question: And the EC50 [17]?
Answer: 0.038 µM

Question: What about the EC50 [18] of the same molecule?
Answer: 0.13 µM

Question: And the IC50 [19]?
Answer: > 1000 µM

Question: What does the source list for `CNc1cc(Oc2c(OC)cc3cc(C#N)ccc3c2OC)nc(Nc2ccc(C#N)cc2)n1`?
Answer: EC50 [1]: 0.51 µM; EC50 [2]: 2.2 µM; EC50 [3]: 0.25 µM; CC50 at 120 h [4]: 239 µM; Ratio EC50 [5]: 13; EC50 [6]: 52.1 µM; Ratio EC50 [7]: 6; Ratio EC50 [8]: 56; Ratio EC50 [9]: 1; EC50 [10]: 1.44 µM; EC50 [11]: 0.31 µM; selectivity ratio [12]: 4080; Ratio EC50 [13]: 8; Ratio EC50 [14]: 37; IC50 [15]: 0.24 µM; Ratio EC50 [16]: 271; EC50 [17]: 0.039 µM; EC50 [18]: 0.046 µM; EC50 [19]: 10.6 µM

Question: Which results are given for `COc1cc2cc(C#N)ccc2c(OC)c1Oc1cc(NC(C)(C)C)nc(Nc2ccc(C#N)cc2)n1`?
Answer: EC50 [1]: 1.89 µM; EC50 [2]: 6.51 µM; EC50 [3]: 0.18 µM; CC50 at 120 h [4]: > 125 µM; Ratio EC50 [5]: 36; EC50 [6]: > 1000 µM; Ratio EC50 [7]: 4; Ratio EC50 [8]: 125; Ratio EC50 [9]: 1; EC50 [10]: 28.5 µM; EC50 [11]: 0.65 µM; selectivity ratio [12]: > 4830; Ratio EC50 [13]: 12; Ratio EC50 [14]: 548; IC50 [15]: 0.31 µM; Ratio EC50 [16]: >19231; EC50 [17]: 0.052 µM; EC50 [18]: 0.075 µM; EC50 [19]: > 1000 µM

Question: With `COc1cc2cc(C#N)ccc2c(OC)c1Oc1cc(NC2CCCC2)nc(Nc2ccc(C#N)cc2)n1` as the molecule, how does the IC50 [1] read?
Answer: 3.69 µM

Question: And the EC50 [2]?
Answer: 7.53 µM

Question: What about the EC50 [3] of the same molecule?
Answer: 0.23 µM

Question: And the CC50 at 120 h [4]?
Answer: > 125 µM

Question: And the “Ratio EC50” value [5]?
Answer: 77

Question: What about the EC50 [6] of the same molecule?
Answer: > 1000 µM

Question: And the “Ratio EC50” value [7]?
Answer: 5

Question: What about the “Ratio EC50” value [8] of the same molecule?
Answer: 158

Question: And the “Ratio EC50” value [9]?
Answer: 1

Question: And the EC50 [10]?
Answer: 6.6 µM

Question: What about the EC50 [11] of the same molecule?
Answer: 0.53 µM

Question: What about the selectivity ratio [12] of the same molecule?
Answer: > 5170

Question: And the “Ratio EC50” value [13]?
Answer: 11

Question: And the “Ratio EC50” value [14]?
Answer: 138

Question: And the IC50 [15]?
Answer: 0.21 µM

Question: And the “Ratio EC50” value [16]?
Answer: 2742

Question: What about the IC50 [17] of the same molecule?
Answer: 0.048 µM

Question: And the EC50 [18]?
Answer: 0.055 µM

Question: And the EC50 [19]?
Answer: 131 µM
